Results reported in PMC7016952, “Characterization of the Menin-MLL Interaction as Therapeutic Cancer Target” (Cancers, 2020).

How the values were obtained:
PANC-1 cells = experiment: RNA-seq differential gene expression, PANC-1; format: cell-based; conditions: PANC-1, 5 µM, 48 h
Method: (§1) Total RNA was isolated using RNeasy-Plus Mini kit (Qiagen, Hilden, Germany). RNA (1 μg) was reverse transcribed using SuperScript III First-Strand Synthesis SuperMix (Life Technologies) and the generated cDNA was analyzed with commercial primers (Supplementary Materials Table S1) by qRT-PCR using TaqMan Fast Advanced Master Mix (Life Technologies). For the RNA-seq study, ZR-75-1, BT474, PANC-1, MiaPaCa-2, 22RV1, JMSU-1, DLD-1, SW1463, LoVo and G401 cells were treated with 5 µM BAY-155 or DMSO for 48 h prior to RNA extraction. After 48 h of 5 µM BAY-155 or DMSO treatment, MCF7, VCaP and LNCaP cells were stimulated for further 12 h with 0.1 nM of E2 (ß-Estradiol) or 1 nM R1881, respectively. MCF7, VCaP and LNCaP cells were cultured in starvation medium (containing 5 µM BAY-155 or DMSO) 6 h before stimulation. RNA was isolated using RNeasy-Plus Mini kit (Qiagen). The purified RNA was used for library preparation (Illumina, San Diego, CA, USA. TruSeq Stranded mRNA Kit) and the generated libraries were sequenced (Illumina, HiSeq2500 HTv4, SR, dual-indexing, 50 cycles).
(§2) RNA-seq reads were aligned to hg38 using STAR aligner. Protein-coding genes with more than 10 reads in more than three samples were used for the analysis (total samples N = 86; genes N = 13,003). […]

MCF7 xenograft = MCF7 xenograft efficacy; format: in vivo, mice
Method: (§3) Tumor cells were injected subcutaneously into the flanks of 6- to 9-week old animals. Efficacy studies in xenograft models were performed at Bayer or EPO GmbH (Berlin-Buch, Germany) using NMRI nu/nu, SCID, BALB/c Nude female mice or SCID male mice (VCaP tumors). All animal studies were conducted in accordance with the animal welfare laws and were approved by the State Office for Health and Social Affairs Berlin (LAGeSo). Experiments were run under the animal license B3600a0007. Compound treatment started at a predefined tumor size or burden or at a predefined day after cell inoculation. BAY-155 was administered orally (p.o.) at various doses and regorafenib, tamoxifen and enzalutamide (resuspended in PEG400/H2O 6/4 or PEG400/EtOH 9/1) were used as control treatment for RKO, MCF7 and VCaP xenografts, respectively. Subcutaneous tumor volumes were determined by caliper measurement.

MV4;11 cells = experiment: Proliferation inhibition, MV4;11; format: cell-based, human; conditions: MV4;11
[1] = system: 401 cancer cell lines derived from 28 tissues of origin; experiment: Cell line proliferation panel (OmniScreen, 401 cancer cell lines); format: cell-based
Method: The characterization of proliferation effects in 401 cancer cell lines was performed on the OmniScreen™ platform (CrownBio). Briefly, cells were seeded at the appropriate density for a five-day growth period and treated with BAY-155 (10 µM maximal concentration with 3.16-fold serial dilutions with 9 dose levels) or left untreated as control. For determination of viability the CellTiter-Glo® Luminescent Cell Viability Assay (Promega, Madison, WI, USA) was used. For absolute IC50 determination, a dose-response curve was fitted using a nonlinear regression model with a sigmoidal dose-response using GraphPad Prism 5.0. The surviving rate (%) = (LumTest-LumMedium control)/(LumNon-treated-LumMedium control) × 100%.

RKO xenograft = RKO xenograft efficacy; format: in vivo, mice
Method: as §3

CYP 2C9 = CYP 2C9 (Homo sapiens, UniProt P11712); conditions: cited from earlier work
ZR-75-1 cells = experiment: RNA-seq differential gene expression, ZR-75-1; format: cell-based; conditions: ZR-75-1, 5 µM, 48 h
Method: as §1, §2

MV4;11 xenograft = MV4;11 xenograft efficacy; format: in vivo, mice
Method: as §3, with “BAY-155 was administered orally (p.o.) at various doses and regorafenib, tamoxifen and enzalutamide (resuspended in PEG400/H2O 6/4 or PEG400/EtOH 9/1) were used as control treatment for RKO, MCF7 and VCaP xenografts, respectively.” left out

CYP 3A4 = CYP 3A4 (Homo sapiens, UniProt P08684); conditions: cited from earlier work
LNCaP cells = experiment: RNA-seq after R1881 stimulation, LNCaP; format: cell-based
Method: as §1
RNA-seq reads were aligned to hg38 using STAR aligner. Protein-coding genes with more than 10 reads in more than three samples were used for the analysis (total samples N = 86; genes N = 13,003). DESeq2 was used to find genes differentially expressed upon treatment by the menin inhibitor in each cell line compared to DMSO or hormonal treatment (for MCF-7, LNCaP and VCaP cell lines). […] GSEA analysis was run on the pre-ranked list based on logFC in prostate (VCaP and LNCaP) and breast (MCF7) cell lines. Data are available at GEO under accession number GSE136272.

VCaP xenograft = VCaP xenograft efficacy; format: in vivo, mice
Method: as §3

JMSU-1 cells = experiment: RNA-seq differential gene expression, JMSU-1; format: cell-based; conditions: JMSU-1, 5 µM, 48 h
Method: as §1, §2

Chain of CYP 3A4 (P08684 whole entry): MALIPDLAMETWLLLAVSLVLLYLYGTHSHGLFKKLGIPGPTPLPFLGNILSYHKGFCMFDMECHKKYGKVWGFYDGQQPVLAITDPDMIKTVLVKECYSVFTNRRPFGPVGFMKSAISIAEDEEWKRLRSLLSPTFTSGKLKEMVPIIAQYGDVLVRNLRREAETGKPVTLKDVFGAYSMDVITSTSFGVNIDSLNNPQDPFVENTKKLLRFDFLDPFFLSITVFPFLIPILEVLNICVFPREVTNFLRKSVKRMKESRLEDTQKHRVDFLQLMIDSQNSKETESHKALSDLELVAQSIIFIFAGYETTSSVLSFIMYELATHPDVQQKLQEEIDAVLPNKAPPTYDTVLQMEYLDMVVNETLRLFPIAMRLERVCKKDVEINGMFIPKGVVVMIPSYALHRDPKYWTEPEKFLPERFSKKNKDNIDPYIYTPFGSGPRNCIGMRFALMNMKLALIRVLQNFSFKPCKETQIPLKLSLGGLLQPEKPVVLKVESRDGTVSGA
Chain of CYP 2C9 (P11712 whole entry): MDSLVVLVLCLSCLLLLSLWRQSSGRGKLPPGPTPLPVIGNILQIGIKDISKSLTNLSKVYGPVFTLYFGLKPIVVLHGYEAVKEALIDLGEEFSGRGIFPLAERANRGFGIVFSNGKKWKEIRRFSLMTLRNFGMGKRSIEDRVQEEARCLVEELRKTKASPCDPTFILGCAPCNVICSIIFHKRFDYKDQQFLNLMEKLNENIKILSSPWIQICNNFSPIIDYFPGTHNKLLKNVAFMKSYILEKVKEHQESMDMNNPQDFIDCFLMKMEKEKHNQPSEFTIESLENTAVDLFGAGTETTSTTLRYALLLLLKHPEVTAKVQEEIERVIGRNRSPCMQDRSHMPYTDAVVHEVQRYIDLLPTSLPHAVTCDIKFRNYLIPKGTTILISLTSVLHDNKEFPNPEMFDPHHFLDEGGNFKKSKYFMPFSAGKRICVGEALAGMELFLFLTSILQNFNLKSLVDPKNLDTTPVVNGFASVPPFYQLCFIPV

## Cc1c(CN2CCC3(CC2)CN(c2ncnc4sc(CC(F)(F)F)cc24)C3)ccc2c1cc(C#N)n2CC(N)=O [BAY-155]
PANC-1 cells
  number of differentially expressed genes: 346 genes
MCF7 xenograft
  tumor volume and tumor weight: no significant effects
MV4;11 cells
  fold improved proliferation inhibition vs MI-503: 2.8 fold
[1]
  proliferation of cancer models originating from breast, prostate or bone: not affected
  sensitivity of all tested MLL-AF4, MLL-AF9 and MLL-TD leukemia cell lines: sensitive
[1]; 120 h, read-out: IC50 in the vast majority of tested cell line models
  IC50: > 10 µM
[1]; IC50 in similar range to MV4;11 and MOLM-13
  sensitivity of KYSE-150 and RKO cells in the in vitro screen: highly sensitive
[1]; n = 33, IC50 below 5 µM taken as significant
  share of liver-derived models with reduced proliferation: 30%
[1]; n = 73, IC50 below 5 µM taken as significant
  share of blood cell-derived models with reduced proliferation: 26%
RKO xenograft
  tumor volume and weight (anti-growth effects): no significant anti-growth effects
CYP 2C9
  IC50: > 20 µM
ZR-75-1 cells
  number of differentially expressed genes: 10 genes
MV4;11 xenograft; 180 mg/kg 2QD p.o.
  body weight: no evidence of body weight loss
MV4;11 xenograft; 180 mg/kg 2QD p.o., regression
  tumor volume T/C: < 0.02
MV4;11 xenograft; p.o.
  tumor weights: clear concentration-dependent trend for reduced tumor weights
CYP 3A4
  IC50: > 20 µM
LNCaP cells
  GSEA of androgen-regulated gene sets: significant reversal of androgen-induced gene expression changes
LNCaP cells; 5 µM, R1881
  genes down-regulated by androgen stimulation that were reversed: 141 genes
  genes up-regulated by androgen stimulation that were reversed: 24 genes
VCaP xenograft
  tumor volume and tumor weight: no significant effects
JMSU-1 cells
  number of differentially expressed genes: 665 genes
